Earlier results, collected in patent US20100160456A1 (priority 2007, published 2010).

Key:
[1] = incidence grade
[2] = after being injected with Propofol
[3] = known emulsion

| Compound | Excitation [1] | Latency [1] | Nausea & vomiting [1] | Awakening [1] | Injection-related pain [1] | Delirium [1] | patients with a rejection to the acute pain after injection [2] [%] | shelf-life of the product once the ampoule is opened [3] |
| --- | --- | --- | --- | --- | --- | --- | --- | --- |
| CCCOC(=O)Cc1ccc(OCC(=O)N(CC)CC)c(OC)c1 [PRPN, Propanidine] | + | + | ++ | – | – | – | – | – |
| Althesin [ALTS] | + | + | + | + | – | – | – | – |
| C=CCC1(C(C)C#CCC)C(=O)N=C(O)N(C)C1=O (stereo not shown) [MTOX, Methohexital] | + | ++ | – | + | + | – | – | – |
| CCOC(=O)c1cncn1[C@H](C)c1ccccc1 [ETOM, Etomidate] | ++ | + | + | – | + | + | – | – |
| CC(=O)NS(=O)(=O)c1ccc(N)cc1 [KET, Cetamide] | +++ | + | + | – | – | +++ | – | – |
| CCCC(C)C1(CC)C(=O)NC(=S)NC1=O (stereo not shown) [TIOP, Thiopental] | – | ++ | – | + | + | – | – | – |
| CC(C)c1cccc(C(C)C)c1O [Propofol, 2,6-diisopropylphenol] | – | ++ | – | + | +++ | – | 80 | approximately 8 hours |
